Here are results for 11 molecules from US9359445B2, “Compositions and methods for treating neurological disorders” (The J. David Gladstone Institutes, priority 2010, dated 2016).

For one assay, the system named is Venus-PKD1. Nature of the assay: Venus-PKD1 translocation to dendritic puncta (puncta index) in transfected neurons. In kind it is cell-based, mouse. To be noted: for effect on glutamate-induced Venus-PKD1 puncta formation: drug applied with glutamate; for Venus-PKD1 translocation / puncta formation induced by the substance: substance applied alone, glutamate 30 μM, ACPD 500 μM, K+ 55 mM in the presence of APV.

In the next assay the test system is PKD1. In words: PKD1 phosphorylation (activation) in stimulated mouse cortical neurons, western blot. The conditions noted are these: for effect on glutamate-induced PKD1 phosphorylation: antagonist applied with glutamate; for PKD1 phosphorylation at activation loop (S744/8) and autophosphorylation (S916) sites after stimulation: mouse cortical cultures, substance applied alone, 10 min. The class given is cell-based. Background: Immunoblotting shows a protein as a band on a membrane.

The next assay has as its system pH-GluR2. In words: pHluorin GluR2 recycling assay in mouse cortical neurons. The class given is cell-based. The text has this:
Rat GluR2 tagged with superecliptic pHluorin was cloned into pGW1 mammalian expression vector. mCherry was subcloned to replace enhanced green fluorescent protein (EGFP) in FUGW PKD1 shRNA and control vectors. mCherry served as a morphology marker to monitor the overall health of the cell. pHluorin-GluR2 and PKD1 shRNA or mutant control were transfected into mouse cortical neurons with Lipofectamine 2000 (Invitrogen). At 12 DIV, neurons were imaged on a Zeiss LSM 510 confocal microscope with a 40× water immersion lens in HBS as described above, only nimodipine was excluded. After 20 min of baseline imaging, 30 μM glutamate and 10 μM glycine were washed on to cells by gravity flow perfusion for 5 min, followed by washout with control HBS solution. Images were collected every 5 min. Average pixel intensity of pH-GluR2 in the cell body was calculated in MetaMorph, and background was measured in a cell-free region of the image and subtracted from fluorescence intensities before further calculations. Fractional change in fluorescent intensity (ΔF/F0) was calculated as Ft−F0/F0, where Ft is pHGluR2 intensity at time t and F0 is the average pH-GluR2 fluorescence intensity at four points before glutamate application.

Entries after “also recorded” stand apart in the source; their conditions may differ.

Regarding `NC(CCCP(=O)(O)O)C(=O)O` (racemic) [APV, D,L-2-amino-5-phosphonovaleric acid], the “effect on glutamate-induced Venus-PKD1 puncta formation” value with Venus-PKD1 was “blocked”. The “effect on glutamate-induced PKD1 phosphorylation” value with PKD1 is listed as “did not block phosphorylation”. `N[C@@]1(C(=O)O)CC[C@@H](C(=O)O)C1` [ACPD, (1S,3R)-1-aminocyclopentane-1,3-dicarboxylic acid]: in the assay with Venus-PKD1, the “Venus-PKD1 translocation / puncta formation induced by the substance” value was “did not induce translocation”. Besides, the “PKD1 phosphorylation at activation loop (S744/8) and autophosphorylation (S916) sites after stimulation” value (from here on “PKD1 phosphorylation at activation loop”) with PKD1 (glutamate 30 μM) is on record as “induced phosphorylation”. Consider `N[C@H](C(=O)O)c1cc(O)cc(O)c1` [DHPG, (S)-3,5-dihydroxyphenylglycine], for which, in the assay with PKD1 (glutamate 30 μM), the “PKD1 phosphorylation at activation loop” value was “induced phosphorylation”.

For the molecule `CN(C)CCCn1cc(C2=C(c3c[nH]c4ccccc34)C(=O)NC2=O)c2ccccc21` [GF109203X], the “effect on glutamate-induced Venus-PKD1 puncta formation” value was “had no effect” in the assay with Venus-PKD1 and “did not prevent PKD1 translocation” in the assay on Venus-PKD1 (listed as GF 109203×). Regarding `Cn1c2ccccc2c2c3c(c4c5ccccc5n(CCC#N)c4c21)CNC3=O` [Gö6976], the “effect on glutamate-induced Venus-PKD1 puncta formation” value in the assay with Venus-PKD1 is listed as “had no effect”. As for `COc1ccc2c(c1)c(C1=C(c3c[nH]c4ccccc34)C(=O)NC1=O)cn2CCCN(C)C` [Gö6983], in the assay with Venus-PKD1, the “effect on glutamate-induced Venus-PKD1 puncta formation” value is on record as “did not prevent PKD1 translocation; also recorded: had no effect”. For the molecule `CC(N)(C(=O)O)c1ccc(C(=O)O)cc1` (stereo not drawn) [MCPG, alpha-methyl-4-carboxyphenylglycine], in the assay on Venus-PKD1, the “effect on glutamate-induced Venus-PKD1 puncta formation” value is recorded as “unaffected”. In the assay on PKD1, the “effect on glutamate-induced PKD1 phosphorylation” value is given as “reduced glutamate-induced PKD1 phosphorylation”. On to `CN[C@H](CC(=O)O)C(=O)O` [NMDA, N-methyl-D-aspartate], for which the “Venus-PKD1 translocation / puncta formation induced by the substance” value in the assay on Venus-PKD1 is “puncta formation was induced”. In addition, the “PKD1 phosphorylation at activation loop” value in the assay with PKD1 (glutamate 30 μM) is given as “did not stimulate autophosphorylation”. In the case of `COc1ccc2c(c1)CC[C@@H]1[C@@H]2CC[C@]2(C)[C@@H](NCCCCCCN3C(=O)C=CC3=O)CC[C@@H]12` [U73122], the “effect on glutamate-induced Venus-PKD1 puncta formation” value with Venus-PKD1 was “blocked glutamate-induced puncta formation; also recorded: blocks puncta formation”.

On to glutamate, for which, in the assay on Venus-PKD1, the “Venus-PKD1 translocation / puncta formation induced by the substance” value was “translocated to discrete puncta throughout the dendrites”. In the assay with PKD1 (glutamate 30 μM, time of stimulation), the “duration of glutamate-induced PKD1 phosphorylation” value was “up to 60 min”. The “PKD1 phosphorylation at activation loop” value in the assay on PKD1 (glutamate 30 μM) was “rapidly and robustly phosphorylated”. Also, the pH-GluR2 fluorescence intensity in the assay on pH-GluR2 (after 5 minutes of glutamate application) was ~80 % of baseline. The pH-GluR2 fluorescence recovery in the assay on pH-GluR2 (fifty-five minutes after glutamate stimulation, neurons with endogenous PKD1) is reported as > 90 % of baseline. For the same molecule, in the assay with pH-GluR2 (immediately after glutamate stimulation), the “pH-GluR2 fluorescence intensity at maximal endocytosis” value was 20 % of baseline.

B1: BDNF: brain-derived neurotophic factor, activates TrkB receptors (protein, UniProt P23560 19-247, looked up)
Neurotrophic factor BDNF …: APMKEANIRGQGGLAYPGVRTHGTLESVNGPKAGSRGLTSLADTFEHVIEELLDEDQKVRPNEENNKDADLYTSRVMLSSQVPLEPPLLFLLEEYKNYLDAANMSMRVRRHSDPARRGELSVCDSISEWVTAADKKTAVDMSGGTVTVLEKVPVSKGQLKQYFYETKCNPMGYTKEGCRGIDKRHWNSQCRTTQSYVRALTMDSKKRIGWRFIRIDTSCVCTLTIKRGR
For the molecule B1, in the assay with PKD1 (glutamate 30 μM), the “PKD1 phosphorylation at activation loop” value is “did not activate PKD1”.
